{
  "source": "patent US10093656B2",
  "about": "“Fused-ring or tricyclic aryl pyrimidine compound used as kinase inhibitor” (NANJING SANHOME PHARMACEUTICAL CO., LTD, priority 2015, dated 2018)",
  "key": {"[1]": {"target": "T1, EGFR T790M/L858R (Homo sapiens, UniProt P00533, L858R/T790M)", "T1 construct": "purchased Life technology (Madison, Wis.)", "T1 sequence (P00533 25-1210 T790M/L858R)": "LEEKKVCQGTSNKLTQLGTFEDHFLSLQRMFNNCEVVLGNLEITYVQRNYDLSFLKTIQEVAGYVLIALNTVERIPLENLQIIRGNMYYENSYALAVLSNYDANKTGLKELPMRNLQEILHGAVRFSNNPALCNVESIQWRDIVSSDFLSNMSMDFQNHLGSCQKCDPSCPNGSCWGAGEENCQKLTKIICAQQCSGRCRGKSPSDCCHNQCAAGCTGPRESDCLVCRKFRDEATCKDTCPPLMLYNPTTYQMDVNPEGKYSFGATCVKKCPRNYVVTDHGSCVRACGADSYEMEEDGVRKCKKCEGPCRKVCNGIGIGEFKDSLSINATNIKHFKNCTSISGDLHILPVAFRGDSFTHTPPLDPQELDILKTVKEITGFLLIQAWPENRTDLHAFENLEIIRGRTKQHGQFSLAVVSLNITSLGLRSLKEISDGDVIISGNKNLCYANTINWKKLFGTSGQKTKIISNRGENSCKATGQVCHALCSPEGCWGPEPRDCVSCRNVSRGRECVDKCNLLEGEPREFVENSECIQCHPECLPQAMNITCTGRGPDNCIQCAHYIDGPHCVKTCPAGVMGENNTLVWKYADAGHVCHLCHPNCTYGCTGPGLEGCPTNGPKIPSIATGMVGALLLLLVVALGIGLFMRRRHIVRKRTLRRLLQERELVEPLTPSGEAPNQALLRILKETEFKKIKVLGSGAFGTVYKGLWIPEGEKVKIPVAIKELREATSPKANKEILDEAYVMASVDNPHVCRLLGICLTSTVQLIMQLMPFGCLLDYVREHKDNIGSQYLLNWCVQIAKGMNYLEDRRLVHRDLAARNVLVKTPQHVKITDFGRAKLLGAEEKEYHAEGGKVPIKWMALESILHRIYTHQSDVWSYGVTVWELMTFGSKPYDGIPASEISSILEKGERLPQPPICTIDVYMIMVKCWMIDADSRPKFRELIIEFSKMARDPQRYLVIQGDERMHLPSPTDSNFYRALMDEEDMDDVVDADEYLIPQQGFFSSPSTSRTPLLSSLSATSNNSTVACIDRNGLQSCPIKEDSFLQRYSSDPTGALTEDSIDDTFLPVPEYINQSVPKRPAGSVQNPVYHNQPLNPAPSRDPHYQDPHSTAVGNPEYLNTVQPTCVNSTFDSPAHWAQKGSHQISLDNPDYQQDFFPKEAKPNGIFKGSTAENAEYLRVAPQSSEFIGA", "test": "EGFR T790M/L858R enzyme HTRF inhibition assay", "type": "biochemical", "conditions": "20 μM ATP, read-out: EGFR L858R/T79M IC50", "method_in_brief": "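HTRF assay with 0.04 nM enzyme, 1 μM biotin-TK1 peptide and 20 μM ATP, 60 min at 23° C. Product detected with Eu-anti-TK1 antibody/XL665 (60 min at 23° C); compound at 10 doses, 300 nM to 0.015 nM final. IC50 from four-parameter fit.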"}, "[2]": {"tested_on": "NCI-H1975 cells EGFR L858R/T790M", "test": "NCI-H1975 cell viability assay (Cell Titer-Glo, 6 days)", "type": "cell-based", "conditions": "Homo sapiens, 144 h", "method_in_brief": "(§1)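 A431 (EGFR WT) and NCI-H1975 (EGFR L858R/T790M) cells treated for 6 days at 37° C, in duplicate with 10 three-fold doses from 10 μM to 0.508 nM final. Viability read as CellTiter-Glo luminescence. IC50 from four-parameter fit of % inhibition.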"}, "[3]": {"tested_on": "A431 cells EGFR WT", "test": "A431 cell viability assay (Cell Titer-Glo, 6 days)", "type": "cell-based, human", "method_in_brief": "as §1"}, "[4]": {"tested_on": "NCI-H1975 lung cancer patient-derived xenograft (CDX)", "test": "Pharmacodynamics study in vivo, NCI-H1975 xenograft (CDX) model", "set-up": "species or system BALB/c nude mice", "conditions": "AZD9291 5 mg/kg", "method_in_brief": "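Female BALB/c nude mice (6-8 weeks) carrying subcutaneous NCI-H1975 tumour tissue; dosing began at mean tumour volume about 150-200 mm^3. Compounds given orally once daily for 21 days at 10 or 20 mg/kg. Caliper measurements twice weekly, V = 0.5 a×b2.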"}, "[5]": {"tested_on": "human skin squamous cell A431 xenograft (CDX)", "test": "Selectivity study in vivo, A431 xenograft (CDX) model", "set-up": "species or system BALB/c nude mice", "conditions": "Table 5 experiment, AZD9291 5 mg/kg"}},
  "data": [
    {"compound": "C=CC(=O)Nc1cc(Nc2ncc(F)c(-c3c4n(c5cc(F)ccc35)CCOC4)n2)c(OC)cc1N(C)CCN(C)C", "note": "[Embodiment 33, N-(2-((2-(Dimethylamino)ethyl)(methyl)amino)-5-((5-fluoro-4-(7-fluoro-3,4-dihydro-1H-[1,4]oxazino[4,3-a]indol-10-yl)pyrimidin-2-yl)amino)-4-methoxyphenyl)acrylamide]", "values": [
      {"measurement": "IC50", "setting": "[1]", "result": 0.5, "unit": "nM"},
      {"measurement": "IC50", "setting": "[2]", "result": 90, "unit": "nM"},
      {"measurement": "IC50", "setting": "[3]; Homo sapiens, A-431, 144 h, A431 cells, 6 days", "result": 693, "unit": "nM"},
      {"measurement": "A431:NCI-H1975 (ratio)", "setting": "[3]; ratio of cell IC50 A431 to NCI-H1975", "result": 7.7},
      {"measurement": "Tumor Volume (mm^3) 4 days", "setting": "[4]; day 4, oral daily: compound 30 10 mg/kg, 33, 34, 40, 42, 43 20 mg/kg", "result": 91, "unit": "mm^3"},
      {"measurement": "Tumor Volume (mm^3) 7 days", "setting": "[4]; day 7, oral daily: compound 30 10 mg/kg, 33, 34, 40, 42, 43 20 mg/kg", "result": 68, "unit": "mm^3"},
      {"measurement": "Tumor Volume (mm^3) 11 days", "setting": "[4]; day 11, oral daily: compound 30 10 mg/kg, 33, 34, 40, 42, 43 20 mg/kg", "result": 43, "unit": "mm^3"},
      {"measurement": "Tumor Volume (mm^3) 14 days", "setting": "[4]; day 14, oral daily: compound 30 10 mg/kg, 33, 34, 40, 42, 43 20 mg/kg", "result": 27, "unit": "mm^3"},
      {"measurement": "Tumor Volume (mm^3) 18 days", "setting": "[4]; day 18, oral daily: compound 30 10 mg/kg, 33, 34, 40, 42, 43 20 mg/kg", "result": 9, "unit": "mm^3"},
      {"measurement": "Tumor Volume (mm^3) 21 days", "setting": "[4]; day 21, oral daily: compound 30 10 mg/kg, 33, 34, 40, 42, 43 20 mg/kg", "result": 3, "unit": "mm^3"},
      {"measurement": "Tumor Volume (mm^3) 4 days", "setting": "[5]; day 4, oral once daily: 33, 34, 40, 42, 43 20 mg/kg", "result": 202, "unit": "mm^3"},
      {"measurement": "Tumor Volume (mm^3) 11 days", "setting": "[5]; day 11, oral once daily: 33, 34, 40, 42, 43 20 mg/kg", "result": 428, "unit": "mm^3"},
      {"measurement": "Tumor Volume (mm^3) 18 days", "setting": "[5]; day 18, oral once daily: 33, 34, 40, 42, 43 20 mg/kg", "result": 930, "unit": "mm^3"}
    ]}
  ]
}
